In ChEMBL document CHEMBL4402510, “Caprazamycins: Promising lead structures acting on a novel antibacterial target MraY” (Eur J Med Chem, 2019):
Values after ≈ are worked out from the molar mass of the structure shown.

Columns and labels:
[1] = system: Mycolicibacterium smegmatis; assay: Antibacterial activity against Mycobacterium smegmatis after 20 hrs by NCCLS-based two-fold broth dilution method; assay type: functional
Staphylococcus aureus [2] = assay: Antibacterial activity against Staphylococcus aureus after 20 hrs by NCCLS-based two-fold broth dilution method; assay type: functional
Staphylococcus aureus [3] = assay: Antibacterial activity against methicillin resistant Staphylococcus aureus after 20 hrs by NCCLS-based two-fold broth dilution method; assay type: functional; details: read-out: MIC
Bacillus subtilis [4] = assay: Antibacterial activity against Bacillus subtilis after 20 hrs by NCCLS-based two-fold broth dilution method; assay type: functional
[5] = system: Mycobacterium tuberculosis; assay: Antibacterial activity against Mycobacterium tuberculosis after 20 hrs by NCCLS-based two-fold broth dilution method; assay type: functional
Mycobacterium avium = assay: Antibacterial activity against Mycobacterium avium after 20 hrs by NCCLS-based two-fold broth dilution method; assay type: functional
[6] = system: Mycobacterium intracellulare; assay: Antibacterial activity against Mycobacterium intracellulare after 20 hrs by NCCLS-based two-fold broth dilution method; assay type: functional
Mycolicibacterium vaccae = assay: Antibacterial activity against Mycobacterium vaccae after 20 hrs by NCCLS-based two-fold broth dilution method; assay type: functional
Mycolicibacterium phlei = assay: Antibacterial activity against Mycobacterium phlei after 20 hrs by NCCLS-based two-fold broth dilution method; assay type: functional
Escherichia coli = assay: Antibacterial activity against Escherichia coli after 20 hrs by NCCLS-based two-fold broth dilution method; assay type: functional
Klebsiella pneumoniae = assay: Antibacterial activity against Klebsiella pneumoniae after 20 hrs by NCCLS-based two-fold broth dilution method; assay type: functional
[7] = target: T1, Phospho-N-acetylmuramoyl-pentapeptide-transferase (Bacillus subtilis (strain 168), UniProt Q03521); assay: Inhibition of MraY in Bacillus subtilis
T1 sequence (Q03521 whole entry): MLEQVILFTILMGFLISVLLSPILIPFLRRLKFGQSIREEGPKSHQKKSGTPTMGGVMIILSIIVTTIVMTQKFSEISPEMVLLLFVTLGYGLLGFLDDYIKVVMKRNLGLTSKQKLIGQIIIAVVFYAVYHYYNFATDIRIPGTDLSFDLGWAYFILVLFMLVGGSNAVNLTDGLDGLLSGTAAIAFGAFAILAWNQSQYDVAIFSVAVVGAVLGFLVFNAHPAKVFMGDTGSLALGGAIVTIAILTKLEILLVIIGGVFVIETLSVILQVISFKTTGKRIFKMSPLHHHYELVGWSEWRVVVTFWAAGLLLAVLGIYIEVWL

Bacillus subtilis [8] = assay: Inhibition of TagO in Bacillus subtilis
[9] = system: Mycobacterium tuberculosis; assay: Inhibition of WecA in Mycobacterium tuberculosis
[10] = system: Mycolicibacterium smegmatis; assay: Inhibition of WecA in Mycobacterium smegmatis
[11] = system: Mycobacterium tuberculosis; assay: Inhibition of WecA in Mycobacterium tuberculosis mc2 6230
[12] = system: Mycobacterium tuberculosis; assay: Antibacterial activity against Mycobacterium tuberculosis H37Rv; assay type: functional
[13] = system: Mycobacterium intracellulare; assay: Antibacterial activity against Mycobacterium intracellulare JCM3684; assay type: functional
[14] = Antibacterial activity against Mycobacterium avium subsp. avium ATCC 25291; assay type: functional
[15] = system: Mycobacterium avium subsp. paratuberculosis; assay: Antibacterial activity against Mycobacterium avium subsp. paratuberculosis ATCC 43015; assay type: functional
Staphylococcus aureus [16] = assay: Antibacterial activity against Staphylococcus aureus FDA209P; assay type: functional; details: FDA 209P
Staphylococcus aureus [17] = assay: Antibacterial activity against methicillin resistant Staphylococcus aureus No. 5; assay type: functional
Enterococcus faecalis [18] = assay: Antibacterial activity against Enterococcus faecalis JCM 5803; assay type: functional
Enterococcus faecalis [19] = assay: Antibacterial activity against Enterococcus faecalis NCTC122103; assay type: functional
Streptococcus pneumoniae [20] = assay: Antibacterial activity against Streptococcus pneumoniae S-223; assay type: functional
Streptococcus pneumoniae [21] = assay: Antibacterial activity against Streptococcus pneumoniae CR-8; assay type: functional

What does the source list for `CCCCc1ccc(NC(=O)C2=CCN(C)[C@@H]([C@H](O[C@@H]3O[C@H](CN)[C@@H](O)[C@H]3O)[C@H]3O[C@@H](n4ccc(=O)[nH]c4=O)[C@H](O)[C@@H]3O)C(=O)N2C)cc1`?
MIC [1]: 6.25 µg/mL (≈ 9.07 µM); MIC (Staphylococcus aureus [2]): 25 µg/mL (≈ 36.3 µM); MIC (Staphylococcus aureus [3]): 100 µg/mL (≈ 145 µM); MIC (Bacillus subtilis [4]): 3.13 µg/mL (≈ 4.54 µM); MIC [5]: 1.56 µg/mL (≈ 2.27 µM); MIC (Mycobacterium avium): 0.39 to 1.56 µg/mL (≈ 0.566 to 2.27 µM); MIC [6]: 0.2 µg/mL (≈ 0.29 µM); MIC (Mycolicibacterium vaccae): 50 µg/mL (≈ 72.6 µM); MIC (Mycolicibacterium phlei): 12.5 µg/mL (≈ 18.1 µM); MIC (Escherichia coli): > 100 µg/mL; MIC (Klebsiella pneumoniae): 50 µg/mL (≈ 72.6 µM); IC50 [7]: 581 nM; MIC (Bacillus subtilis [8]): 0.05 µg/mL (≈ 0.0726 µM); MIC [9]: 0.04 µg/mL (≈ 0.0581 µM); MIC [10]: 0.0044 µg/mL (≈ 0.00639 µM); MIC [11]: 0.04 µg/mL (≈ 0.0581 µM); MIC [12]: 0.2 to 1.56 µg/mL (≈ 0.29 to 2.27 µM); MIC [13]: 0.2 to 1.56 µg/mL (≈ 0.29 to 2.27 µM); MIC [14]: 0.2 to 1.56 µg/mL (≈ 0.29 to 2.27 µM); MIC [15]: 0.2 to 1.56 µg/mL (≈ 0.29 to 2.27 µM); MIC (Staphylococcus aureus [16]): 8 to 100 µg/mL (≈ 11.6 to 145 µM); MIC (Staphylococcus aureus [17]): 8 to 100 µg/mL (≈ 11.6 to 145 µM); MIC (Enterococcus faecalis [18]): 8 to 100 µg/mL (≈ 11.6 to 145 µM); MIC (Enterococcus faecalis [19]): 8 to 100 µg/mL (≈ 11.6 to 145 µM); MIC (Streptococcus pneumoniae [20]): 8 to 100 µg/mL (≈ 11.6 to 145 µM); MIC (Streptococcus pneumoniae [21]): 8 to 100 µg/mL (≈ 11.6 to 145 µM)
